# Target: T1, Glucocorticoid receptor (Homo sapiens, UniProt P04150)
# T1 sequence (P04150 whole entry): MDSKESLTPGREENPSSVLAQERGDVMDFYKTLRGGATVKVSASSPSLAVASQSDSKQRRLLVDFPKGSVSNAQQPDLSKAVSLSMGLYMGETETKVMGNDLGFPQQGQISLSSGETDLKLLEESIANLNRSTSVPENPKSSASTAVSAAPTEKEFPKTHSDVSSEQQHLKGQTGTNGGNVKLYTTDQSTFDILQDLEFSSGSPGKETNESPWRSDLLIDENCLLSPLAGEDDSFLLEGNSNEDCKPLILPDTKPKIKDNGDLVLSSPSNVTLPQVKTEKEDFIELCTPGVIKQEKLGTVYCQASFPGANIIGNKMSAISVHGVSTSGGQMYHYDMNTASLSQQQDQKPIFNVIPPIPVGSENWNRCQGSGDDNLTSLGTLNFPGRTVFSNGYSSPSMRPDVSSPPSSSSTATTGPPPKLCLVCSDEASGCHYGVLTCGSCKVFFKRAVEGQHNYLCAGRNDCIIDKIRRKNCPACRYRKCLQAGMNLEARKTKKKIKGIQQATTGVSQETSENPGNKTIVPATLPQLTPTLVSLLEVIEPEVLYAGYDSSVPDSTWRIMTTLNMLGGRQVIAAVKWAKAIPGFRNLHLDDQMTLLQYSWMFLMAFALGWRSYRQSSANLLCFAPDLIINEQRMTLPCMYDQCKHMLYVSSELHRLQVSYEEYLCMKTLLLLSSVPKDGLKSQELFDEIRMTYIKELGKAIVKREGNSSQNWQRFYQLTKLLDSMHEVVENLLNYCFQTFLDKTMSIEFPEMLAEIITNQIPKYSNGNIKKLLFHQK
compound,measurement,value
C[C@]12C=CC(=O)C=C1CC[C@@H]1[C@@H]2[C@@H](O)C[C@@]2(C)[C@H]1C[C@H]1O[C@@H](C3CCCCC3)O[C@]12C(=O)CO [desisobutyryl-ciclesonide],Ki,0.31 nM
